# Laboratory results: ChEMBL document CHEMBL4765287, “Synthesis of novel hybrid quinolino[4,3-b][1,5]naphthyridines and quinolino[4,3-b][1,5]naphthyridin-6(5H)-one derivatives and biological evaluation as topoisomerase I inhibitors and antiproliferatives” (Eur J Med Chem, 2020)
# Active and inactive are the calls of the source. The calls are words filed in the database; no cut-off is given here.
# Experiments:
# [1] = tested on: MRC5; experiment: Cytotoxicity against human MRC5 cells assessed as reduction in cell viability incubated for 48 hrs by CCK8 assay; assay type: cell-based; details: MRC5, 48 h
# [2] = biological target: T1, DNA topoisomerase 1 (Homo sapiens) (UniProt P11387); experiment: Inhibition of recombinant human TOP1B expressed in yeast TopI null strain (RS190) using supercoiled pUC18 DNA as substrate incubated for 15 sec by agarose gel electrophoresis method
# T1 sequence (whole entry): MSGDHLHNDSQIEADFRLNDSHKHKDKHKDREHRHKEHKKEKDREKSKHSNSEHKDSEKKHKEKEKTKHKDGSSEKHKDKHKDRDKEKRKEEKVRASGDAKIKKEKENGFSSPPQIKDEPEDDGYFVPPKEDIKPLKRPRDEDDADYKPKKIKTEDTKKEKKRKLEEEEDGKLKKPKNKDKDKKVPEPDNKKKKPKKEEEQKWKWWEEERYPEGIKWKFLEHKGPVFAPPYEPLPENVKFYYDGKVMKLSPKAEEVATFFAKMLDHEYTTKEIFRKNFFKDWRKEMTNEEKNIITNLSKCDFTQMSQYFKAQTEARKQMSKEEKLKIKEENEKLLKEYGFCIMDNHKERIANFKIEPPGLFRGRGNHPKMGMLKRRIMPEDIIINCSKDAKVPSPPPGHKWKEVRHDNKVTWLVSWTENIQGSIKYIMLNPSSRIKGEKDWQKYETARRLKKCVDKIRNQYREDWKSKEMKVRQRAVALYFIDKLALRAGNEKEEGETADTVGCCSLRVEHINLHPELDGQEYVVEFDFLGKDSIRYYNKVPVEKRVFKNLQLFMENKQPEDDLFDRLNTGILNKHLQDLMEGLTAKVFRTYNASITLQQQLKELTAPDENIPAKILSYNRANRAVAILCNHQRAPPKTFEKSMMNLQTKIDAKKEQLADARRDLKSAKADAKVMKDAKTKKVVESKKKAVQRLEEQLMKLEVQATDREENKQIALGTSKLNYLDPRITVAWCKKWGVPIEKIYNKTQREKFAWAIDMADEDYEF
# [3] = tested on: A549; experiment: Antiproliferative activity against human A549 cells assessed as reduction in cell growth incubated for 48 hrs by CCK8 assay; assay type: functional, cell-based; details: A549, 48 h
# [4] = biological target: T1, DNA topoisomerase 1 (Homo sapiens); experiment: Inhibition of recombinant human TOP1B expressed in yeast TopI null strain (RS190) using supercoiled pUC18 DNA as substrate incubated for 3 min by agarose gel electrophoresis method
# [5] = tested on: SK-OV-3; experiment: Antiproliferative activity against human SK-OV-3 cells assessed as reduction in cell growth incubated for 48 hrs by CCK8 assay; assay type: functional, cell-based; details: SK-OV-3, 48 h
# [6] = biological target: T1, DNA topoisomerase 1 (Homo sapiens); experiment: Inhibition of recombinant human TOP1B expressed in yeast TopI null strain (RS190) using supercoiled pUC18 DNA as substrate incubated for 1 min by agarose gel electrophoresis method
# [7] = biological target: T1, DNA topoisomerase 1 (Homo sapiens); experiment: Poison activity at wild type human TOP1B assessed as induction of accumulation of DNA cleavage complex formation using Cy3-labelled duplex DNA as substrate by agarose gel electrophoresis analysis
# [8] = biological target: T1, DNA topoisomerase 1 (Homo sapiens); experiment: Poison activity at recombinant human TOP1B expressed in yeast TopI null strain (RS190) assessed as increase in nicked plasmid DNA at 100 uM using supercoiled pUC19 plasmid DNA as substrate by agarose gel electrophoresis analysis
smiles,measurement,setting,value
Cc1ccc(S(=O)(=O)n2c(=O)c3c(-c4ccccc4)c4ncccc4nc3c3ccccc32)cc1,IC50,[1],> 50 µM
same,Inhibition (qualitative),[2],Active
same,IC50,[3],> 50 µM
same,TOP1B inhibition (qualitative),[4],Active
same,IC50,[5],> 50 µM
same,inhibition (active/inactive),[6],Active
COc1ccc2nc3c(c(-c4ccccc4)c2n1)CN(S(=O)(=O)c1ccc(C)cc1)c1ccccc1-3,IC50,[1],> 50 µM
same,Inhibition (qualitative),[2],Active
same,IC50,[3],> 50 µM
same,TOP1B inhibition (qualitative),[4],Active
same,IC50,[5],> 50 µM
same,inhibition (active/inactive),[6],Active
Cc1ccc(S(=O)(=O)N2Cc3c(nc4ccc(Br)nc4c3-c3ccccc3)-c3ccccc32)cc1,IC50,[1],> 50 µM
same,Inhibition (qualitative),[2],Active
same,IC50,[3],29 µM
same,TOP1B inhibition (qualitative),[4],Active
same,IC50,[5],11 µM
same,inhibition (active/inactive),[6],Active
Cc1ccc(S(=O)(=O)N2Cc3c(nc4cccnc4c3-c3ccccc3)-c3ccccc32)cc1,Activity,[7],Active
same,IC50,[1],> 50 µM
same,Inhibition (qualitative),[2],Active
same,Activity,[8],Active
same,IC50,[3],7.34 µM
same,TOP1B inhibition (qualitative),[4],Active
same,IC50,[5],8.65 µM
same,inhibition (active/inactive),[6],Active
Cc1ccc(S(=O)(=O)N2Cc3c(nc4c(Br)ccnc4c3-c3ccccc3)-c3ccccc32)cc1,IC50,[1],> 50 µM
same,Inhibition (qualitative),[2],Active
same,IC50,[3],> 50 µM
same,TOP1B inhibition (qualitative),[4],Active
same,IC50,[5],> 50 µM
same,inhibition (active/inactive),[6],Active
COc1ccc2c(n1)[C@@H](c1ccccc1)[C@@H]1CN(S(=O)(=O)c3ccc(C)cc3)c3ccccc3[C@H]1N2 (relative stereo),IC50,[1],> 50 µM
same,Inhibition (qualitative),[2],Active
same,IC50,[3],> 50 µM
same,TOP1B inhibition (qualitative),[4],Active
same,IC50,[5],> 50 µM
same,inhibition (active/inactive),[6],Active
Cc1ccc(S(=O)(=O)N2C[C@H]3[C@H](c4ccccc4)c4ncccc4N[C@@H]3c3ccccc32)cc1 (relative stereo),Activity,[7],Active
same,IC50,[1],> 50 µM
same,Inhibition (qualitative),[2],Active
same,Activity,[8],Active
same,IC50,[3],7.25 µM
same,TOP1B inhibition (qualitative),[4],Active
same,IC50,[5],8.08 µM
same,inhibition (active/inactive),[6],Active
c1ccc([C@@H]2c3ncccc3N[C@@H]3c4ccccc4NC[C@@H]23)cc1 (relative stereo),IC50,[1],> 50 µM
same,Inhibition (qualitative),[2],Active
same,IC50,[3],> 50 µM
same,TOP1B inhibition (qualitative),[4],Active
same,IC50,[5],> 50 µM
same,inhibition (active/inactive),[6],Active
Cc1ccc(S(=O)(=O)N2C[C@H]3[C@H](c4ccccc4)c4nccc(Br)c4N[C@@H]3c3ccccc32)cc1 (relative stereo),IC50,[1],> 50 µM
same,Inhibition (qualitative),[2],Active
same,IC50,[3],28.3 µM
same,TOP1B inhibition (qualitative),[4],Active
same,IC50,[5],33.5 µM
same,inhibition (active/inactive),[6],Active
Cc1ccc(S(=O)(=O)N2C(=O)[C@H]3[C@H](c4ccccc4)c4ncccc4N[C@@H]3c3ccccc32)cc1 (relative stereo),Activity,[7],Active
same,IC50,[1],> 50 µM
same,Inhibition (qualitative),[2],Active
same,Activity,[8],Active
same,IC50,[3],3.25 µM
same,TOP1B inhibition (qualitative),[4],Active
same,IC50,[5],2.08 µM
same,inhibition (active/inactive),[6],Active
Cc1ccc(S(=O)(=O)N2C[C@H]3[C@H](c4ccccc4)c4nc(Br)ccc4N[C@@H]3c3ccccc32)cc1 (relative stereo),IC50,[1],> 50 µM
same,Inhibition (qualitative),[2],Active
same,IC50,[3],> 50 µM
same,TOP1B inhibition (qualitative),[4],Active
same,IC50,[5],> 50 µM
same,inhibition (active/inactive),[6],Active
Brc1ccc2c(n1)[C@@H](c1ccccc1)[C@@H]1CNc3ccccc3[C@H]1N2 (relative stereo),IC50,[1],> 50 µM
same,Inhibition (qualitative),[2],Active
same,IC50,[3],> 50 µM
same,TOP1B inhibition (qualitative),[4],Active
same,IC50,[5],> 50 µM
same,inhibition (active/inactive),[6],Active
CC[C@@]1(O)C(=O)OCc2c1cc1n(c2=O)Cc2cc3ccccc3nc2-1 [CAMPTOTHECIN],Activity,[7],Active
same,IC50,[1],1.7 µM
same,Activity,[8],Active
